Assay [1] has as its system VE-cadherin. Put plainly: Western blotting of VE-cadherin, endothelial cells after hypoxia/reoxygenation. It counts as cell-based. The following applies: rat brain endothelial cells, hypoxia 4.5 h/reoxygenation 3 h; tPA 20 mcg/ml alone (model group); T541 400 mcg/ml + tPA 20 mcg/ml. The source says: (§1) Establishment of rat brain endothelial cell H/R model: rat brain endothelial cells were purchased from ATCC, and then subcultured to 5-6 generations in normal conditions for further experiment. […]

Assay [2] relates to ATP, ADP and AMP of cerebral cortex in ischemic penumbra. In words: ELISA of ATP, ADP and AMP in brain tissue. It counts as in vivo, C57BL/6 mice. To be noted: brain tissue 24 hours after administration. The source says:
To compare the therapeutical effect on reperfusion injury caused by tPA thrombolysis between the traditional Chinese medicinal composition of the present invention and each ingredient (total saponins of Astragalus, the experiment was divided into the following group (tPA is combined with T541, individual ingredient thereof and compatibility of any two ingredients) specifically as follows: tPA+total saponins of Astragalus (tPA+HQ), tPA+ salvianolic acids (tPA+DS), tPA+Panax notoginseng saponins (tPA+SQ), tPA+ total saponins of Astragalus+salvianolic acids (tPA+HQ+DS), tPA+ total saponins of Astragalus+Panax notoginseng saponins (tPA+HQ+SQ), tPA+ salvianolic acids+Panax notoginseng saponins (tPA+DS+SQ) and tPA+T541. Normal saline served as an isovolumetric control. The usage number in each group is 6.
ELISA adsorption kit was used to measure the change on the content of MDA, 8-hydroxyl-2′-deoxyguanosine (8-OHdG), adenosine triphosphate (ATP), adenosine diphosphate (ADP) and adenosine monophosphate (AMP) in the penumbra field of brain tissue cortex of the mode, and the change on the activity of mitochondrial complexes I, II, IV and V. 6 samples were used to repeat the independent experiment for at least three times for each group of data.

Assay [3] has as its system Claudin-5. In words: Western blotting of Claudin-5, endothelial cells after hypoxia/reoxygenation. The assay is classed as cell-based. The following applies: rat brain endothelial cells, hypoxia 4.5 h/reoxygenation 3 h; tPA 20 mcg/ml alone (model group); T541 400 mcg/ml + tPA 20 mcg/ml.
Text: as §1

[4] abbreviates: tPA 10 mg/kg alone or + T541 20 mg/kg or ingredients at Table 7 doses.

In the case of “tPA: tissue-type plasminogen activator (tPA) for thrombolysis”, the VE-cadherin/β-actin in assay [1] stood at 0.58 ± 0.07. Moreover, in assay [2] (setting [4]), the ADP came out at 2.51 ± 0.24, the ADP/ATP came out at 2.45 ± 0.10, the AMP is 2.66 ± 0.32 and the AMP/ATP is reported as 2.68 ± 0.34. The ATP in assay [2] (tPA 10 mg/kg alone or + T541 20 mg/kg or ingredients at Table 7 doses (Astragalus saponins 10, Panax notoginseng saponins 2, salvianolic acids 8, in pairs 2 mg/kg)) came out at 1.05 ± 0.13. Moreover, the Claudin-5/β-actin in assay [3] is listed as 0.40 ± 0.06.

(Values after patent US20210038668A1, “TRADITIONAL CHINESE MEDICINE COMPOSITION FOR PREVENTING AND/OR TREATING ISCHEMIC REPERFUSION INJURY” (TASLY PHARMACEUTICAL GROUP CO., LTD., priority 2018, published 2021).)
